The NIST ThermoML archive (doi:10.1016/j.jct.2008.12.002)

Test: xn = mol fraction of the nth substance listed
Conditions: 101 kPa, Liquid, Vibrating tube method

CCCCCCCCOS(=O)(=O)[O-].CCCCn1cc[n+](C)c1 [1-butyl-3-methylimidazolium octyl sulfate] + OCCO
mass density [kg/m3]
Conditions | 298.15 K | 308.15 K | 318.15 K
x1 = 0.0003 | 1109.9 | 1102.8 | 1095.5
x1 = 0.0008 | 1109.8 | 1102.6 | 1095.3
x1 = 0.0012 | 1109.6 | 1102.5 | 1095.2
x1 = 0.0017 | 1109.5 | 1102.4 | 1095.1
x1 = 0.002 | 1109.4 | 1102.3 | 1095
x1 = 0.0038 | 1108.8 | 1101.7 | 1094.4
x1 = 0.007 | 1107.8 | 1100.7 | 1093.4
x1 = 0.0119 | 1106.3 | 1099.2 | 1092
x1 = 0.0174 | 1104.7 | 1097.7 | 1090.5
x1 = 0.0258 | 1102.5 | 1095.5 | 1088.2
x1 = 0.0508 | 1096.8 | 1089.8 | 1082.6
x1 = 0.19 | 1079.9 | 1072.9 | 1065.9
x1 = 0.301 | 1074.2 | 1067.3 | 1060.4
x1 = 0.3712 | 1072.2 | 1065.3 | 1058.4
x1 = 0.4591 | 1070.5 | 1063.6 | 1056.8
x1 = 0.5435 | 1069.4 | 1062.7 | 1055.9
x1 = 0.6225 | 1068.7 | 1062.1 | 1055.4
x1 = 0.7366 | 1068.2 | 1061.5 | 1054.9
x1 = 0.8073 | 1067.9 | 1061.3 | 1054.8
x1 = 0.9007 | 1067.7 | 1061.2 | 1054.6
x1 = 1 | 1067.6 | 1061 | 1054.5

CCCCn1cc[n+](C)c1.F[B-](F)(F)F [1-butyl-3-methylimidazolium tetrafluoroborate] + OCCO
mass density [kg/m3]
Conditions | 298.15 K | 308.15 K | 318.15 K
x1 = 0.0266 | 1116.7 | 1109.4 | 1102.2
x1 = 0.0766 | 1127.3 | 1119.9 | 1112.5
x1 = 0.1017 | 1131.9 | 1124.4 | 1116.9
x1 = 0.1678 | 1142.4 | 1134.7 | 1126.9
x1 = 0.2425 | 1152.1 | 1144.1 | 1136.2
x1 = 0.3825 | 1166 | 1157.8 | 1149.7
x1 = 0.4389 | 1170.5 | 1162.4 | 1154.3
x1 = 0.5207 | 1176.4 | 1168.3 | 1160.3
x1 = 0.6049 | 1181.7 | 1173.7 | 1165.8
x1 = 0.7196 | 1188.1 | 1180.4 | 1172.7
x1 = 0.8106 | 1192.7 | 1185.1 | 1177.6
x1 = 0.8978 | 1196.8 | 1189.4 | 1182.1
x1 = 1 | 1201.2 | 1194 | 1186.9

CCCCCCCC[n+]1ccn(C)c1.F[B-](F)(F)F [1-methyl-3-octylimidazolium tetrafluoroborate] + OCCO
mass density [kg/m3]
Conditions | 298.15 K | 308.15 K | 318.15 K
x1 = 0.0027 | 1109.9 | 1102.8 | 1095.7
x1 = 0.0046 | 1109.7 | 1102.7 | 1095.4
x1 = 0.0081 | 1109.5 | 1102.4 | 1095.2
x1 = 0.0151 | 1109 | 1101.9 | 1094.6
x1 = 0.0316 | 1108 | 1100.8 | 1093.4
x1 = 0.0614 | 1106.4 | 1099.2 | 1091.7
x1 = 0.083 | 1105.4 | 1098 | 1090.6
x1 = 0.1341 | 1103.5 | 1096 | 1088.6
x1 = 0.2026 | 1101.7 | 1094 | 1086.8
x1 = 0.273 | 1100.4 | 1092.7 | 1085.3
x1 = 0.4125 | 1099.2 | 1091.5 | 1084.2
x1 = 0.5198 | 1099 | 1091.3 | 1084.1
x1 = 0.6306 | 1099.3 | 1091.6 | 1084.5
x1 = 0.7919 | 1100.3 | 1092.6 | 1085.5
x1 = 0.9583 | 1101.6 | 1094 | 1087.1
x1 = 1 | 1101.9 | 1094.32 | 1087.5
